Assay results reported in US20250000942A1, “PEPTIDES AND METHODS OF TRANSPLANTATION AND RESTORATIVE ORGAN FUNCTION” (Prince Biotech, LLC, priority 2017, published 2025).

What was measured:
Format in all cases: cell-based, human
JEG-3 cells [1] = experiment: Influence of PIF and P4 on expression of HLA class I molecules (flow cytometry, Western blotting, surface antigen quantification); conditions: 1 μg/ml P4, 24 hours
Experimental: The cells were then incubated with the HLA-G specific mouse monoclonal antibody MEM-G9m followed by incubation with Alexa Fluor 488 conjugated antibody preparations. Fluorescence was detected by using BD Accuri C6 flow cytometer. The data was analyzed using a Flowing Software V2.5.1. […] Error bar indicates standard deviation from the mean. Statistical analysis was performed with SigmaPlot software. One way Analysis of Variance was employed to test the significance of differences among groups.
The collected cells were further tested for expression for class I HLA molecules by using specific monoclonal antibodies.
Treated and untreated JEG-3 cells, following exposure to test agents were detached, counted, and pelleted as described previously [14]. […] To quantify the final concentration of the proteins we used the Bradford assay following the previously described protocol with some modifications [15]. […] Five μl of each protein sample was then diluted 1:1 with PBS and incubated with the reading reagent at room temperature for 5 min. Finally, the protein concentration was determined using a spectrophotometer, extrapolating each absorbance value over the previously created standard curve. […] A pre-stained standard protein marker (Li-Cor Bioscience) was also loaded onto the gel and run parallel to the protein samples to be analyzed. […]

JEG-3 cells [2] = experiment: Effect of PIF and P4 on JEG-3 proteome (2-DE, spot analysis, mass spectrometry)
Experimental: Cell lysates and their protein concentration were prepared and assessed as previously described Frozen cell pellets were dissolved in hot lysis buffer (1% SDS, 100 mM Tris-HCl), and sonicated. Five percent of 2-mercaptoethanol was added. Samples were then dissolved in solubilisation buffer (8 M urea, 2.5 M thiourea, 4% 3-[(3-cholamidopropyl) dimethylammonio]-1-propanesuflate, 50 mM DTT, 24 mM spermine tetrachloride) at room temperature for 1 h. The samples were centrifuged at 12000×g for 30 min. To concentrate the protein samples, acetone precipitation was used. Once the supernatant was discarded the protein pellets were washed with a mixture of ice-cold methanol-chloroform and re-suspended in isoelectric focusing buffer (IEF) (8 M urea, 2.5 M thiourea, 4% 3-[(3-cholamidopropyl) dimethylammonio]-1-propanesuflate).
The IPG strips were then focused using an IPGphor system (BioRad, USA). Rehydrated filter wicks were placed between the electrodes and the IPG strip. […] After IEF, strips were rinsed in deionized water, and stored at −80° C. until the second dimensional […].
For second dimensional […], IPG strips were incubated in equilibrium buffer 1 [6 M/l urea, 20% w/v glycerol, 4% w/v SDS, 0.375 M/l Tris-HCL (pH 8.8), 5% 2-mercaptoethanol] for 15 min at room temperature. […] Strips were then rinsed in electrophoresis buffer (60.57 g Tris base, 288.27 g glycine, 20 g SDS, double distilled H2O up to 20 L). The second dimensional analysis was carried out using a Criterion gel system (Bio-Rad). Each strip was placed into the well of a 12% SDS-PAGE gel (Bio-Rad) and sealed with agarosc solution. Electrophoresis was carried out at 50 V for 30 min and following this at 150 V for 4-5 h. The gel was then fixed overnight in fixing solution (50% methanol, 5% acetic acid, 45% water), and stained using the silver staining protocol.
The gels were scanned and analyzed using SameSpots analysis software (Nonlinear dynamics Ltd). Digitized images from 12 silver-stained gels were analyzed for spot detection and quantification. Image analysis included spot detection, editing, background subtraction and spot matching. A master image was then created, and all spots in the other gels were matched to this master image both manually and digitally. The size of a protein, which approximates the volume of the spot, was calculated by using the software. Spots identified as differentially present were excised and analyzed using mass spectrometry (MS) analysis.
Identified spots were manually excised from the 2-DE gels using a disposable sterile scalpel spot cutter and washed in molecular biology grade water. Each spot was then subjected to in gel digestion alkylation, along with tryptic digestion so as to yield peptide fragments for MS analysis following previously described protocols.
Peptide digests were subjected to MS analysis at the sub-picomole level through the use of a matrix assisted laser desorption ionization-time of flight (MALDI-TOF MS) so as to generate peptide mass fingerprinting (PMF). The MALDI-TOF analysis was carried out using a Bruker Daltonics Reflex IV instrument using a linear mode with a laser power attenuation setting at 30, as described previously.
The expression data were pre-processed by mean-centering (by division and medians), and over median normalized data. A heatmap was generated via hierarchical clustering for examining protein expression and treatment (http://cran.r-project.org). The generation of a heatmap for median centered protein expression data with horizontal hierarchical clustering of different proteins utilized the median linkage agglomeration method and vertical hierarchical clustering of treatment conditions, using complete linkage agglomeration. A correlation distance metric was used for clustering data.

JEG-3 cells [3] = experiment: ELISA for cytokine secretion by JEG-3 cells; conditions: JEG-3, serum-free media, 24 hours, P4 1 μg/ml
Experimental: At the end of the experiments the supernatant was collected and analyzed for cytokine levels. The concentrations of tumor necrosis factor alpha (TNF-a), interleukin (IL)-1, IL-8, IL-10, interferon gamma (IFN-γ), transforming growth factor beta 1 (TGF-[…]) and granulocyte macrophage colony-stimulating factor (GM-CSF) were measured using ELISA kits (eBioscience), following the manufacturer's instructions.

[4] = P4 1 μg/ml or PIF 200 nM, 24 hours

Structure (SMILES): CC(=O)[C@H]1CC[C@H]2[C@@H]3CCC4=CC(=O)CC[C@]4(C)[C@H]3CC[C@]12C [P4, Progesterone]
- levels of HLA-G, -E, -F and -C (JEG-3 cells [1]): increased levels of HLA-G, -E, -F and -C
- Average Normalized Volumes, ATP5B (spot 71) (JEG-3 cells [2]; [4]): 283.644
- Average Normalized Volumes, BBB (spot 92) (JEG-3 cells [2]; [4]): 544.421
- Average Normalized Volumes, CD59 (spot 51) (JEG-3 cells [2]; [4]): 388.079
- Average Normalized Volumes, CLIC3 (spot 69) (JEG-3 cells [2]; [4]): 220.958
- Average Normalized Volumes, DCBD2 (spot 67) (JEG-3 cells [2]; [4]): 413.865
- Average Normalized Volumes, EGFR (spot 30) (JEG-3 cells [2]; [4]): 313.949
- Average Normalized Volumes, FOXP3 (spot 98) (JEG-3 cells [2]; [4]): 1035.457
- Average Normalized Volumes, HLAG (spot 89) (JEG-3 cells [2]; [4]): 961.078
- Average Normalized Volumes, HS74L (spot 8) (JEG-3 cells [2]; [4]): 407.206
- Average Normalized Volumes, HSP71 (spot 2) (JEG-3 cells [2]; [4]): 328.658
- Average Normalized Volumes, LMNA (spot 34) (JEG-3 cells [2]; [4]): 276.712
- Average Normalized Volumes, PDIA3 (spot 24) (JEG-3 cells [2]; [4]): 425.280
- Average Normalized Volumes, PRDX2 (spot 66) (JEG-3 cells [2]; [4]): 144.399
- Average Normalized Volumes, PRGR (spot 55) (JEG-3 cells [2]; [4]): 277.710
- Average Normalized Volumes, ZSC21 / TTP (spot 32) (JEG-3 cells [2]; [4]): 123.015
- number of differentially expressed proteins up-regulated (of 19) (JEG-3 cells [2]; hierarchical clustering, vs control cells): five
- IFN-γ secretion (JEG-3 cells [3]): 10 pg/mL
- TNF-α secretion (JEG-3 cells [3]): 1 pg/mL
- GM-CSF secretion (JEG-3 cells [3]; PIF 200 nM, mean ± SEM): 310 ± 36.3 pg/mL
- IL-1β secretion (JEG-3 cells [3]; PIF 200 nM, mean ± SEM): 334 ± 27.7 pg/mL
- IL-8 secretion (JEG-3 cells [3]; PIF 200 nM, mean ± SEM): 685 ± 58.2 pg/mL
- TGF-β1 secretion (JEG-3 cells [3]; PIF 200 nM, mean ± SEM): 398 ± 32.4 pg/mL
